Common to all, as to type: functional, cell-based
The subject of test [1] is P388. Put plainly: Cytotoxicity against mouse P388 cells.
In test [2] the test system is A549. Put plainly: Cytotoxicity against human A549 cells.
Test [3] has as its system HT-29. The experiment in a line: Cytotoxicity against human HT-29 cells.
Test [4] deals with SK-MEL-28. Put plainly: Cytotoxicity against human SK-MEL-28 cells.

Converted amounts (≈) assume the structure as drawn.

The values below come from ChEMBL document CHEMBL1150871, “New Briarane Stecholide Diterpenes from the Indonesian Gorgonian Briareum sp” (J Nat Prod, 1998).

As for `CC(=O)O[C@H]1C/C(C)=C\[C@@H]2OC(=O)[C@]3(C)O[C@]23[C@@H](OC(C)=O)[C@H]2C(C)=CC[C@H](OC(C)=O)[C@]2(C)[C@H]1OC(C)=O`, the concentration for half-maximal inhibition (IC50) in test [1], in test [2], in test [3] and in test [4] was above 10 µg/mL throughout.

The compound `CC(=O)O[C@H]1CC/C(C)=C\[C@@H]2OC(=O)[C@]3(C)O[C@@]23[C@@H](OC(C)=O)[C@H]2[C@@]3(C)O[C@H]3C[C@H](OC(C)=O)[C@]12C` returned an EC50 in test [1] of 1.59 µg/mL (≈ 3.14 µM). For the same compound, the IC50 in test [2], in test [3] and in test [4] was above 10 µg/mL each time.

For `CC(=O)O[C@@H]1[C@H]2[C@@]3(C)O[C@H]3[C@@H](O)[C@H](OC(C)=O)[C@]2(C)[C@@H](OC(C)=O)[C@H](OC(C)=O)C/C(C)=C\[C@@H]2OC(=O)[C@]3(C)O[C@@]213` [STECHOLIDE L], the concentration for half-maximal inhibition (IC50) in test [1] came to 10 µg/mL (≈ 17.2 µM); in test [2], 2.5 µg/mL (≈ 4.31 µM); in test [3], 5 µg/mL (≈ 8.61 µM); in test [4], 5 µg/mL (≈ 8.61 µM).

Turning to `CC(=O)O[C@H]1C=C[C@@](C)(O)[C@@H]2[C@H](OC(C)=O)[C@@]34O[C@@]3(C)C(=O)O[C@H]4/C=C(/C)CC[C@H](OC(C)=O)[C@@]12C`, the IC50 in test [1], in test [2], in test [3] and in test [4] was above 10 µg/mL throughout.

Regarding `CC(=O)O[C@@H]1[C@@H]2O[C@]2(C)[C@@H]2[C@@H](OC(C)=O)[C@]34O[C@@]3(C)C(=O)O[C@H]4/C=C(/C)C[C@@H](OC(C)=O)[C@H](OC(C)=O)[C@@]2(C)[C@H]1OC(C)=O` [STECHOLIDE K], the IC50 in test [1], in test [2], in test [3] and in test [4] was above 10 µg/mL in each case.

With `CCCC(=O)O[C@@H]1C/C(C)=C\[C@@H]2OC(=O)[C@]3(C)O[C@]23[C@H](OC(C)=O)[C@H]2C(C)=C[C@@H](O)[C@H](OC(C)=O)[C@]2(C)[C@H]1OC(C)=O` [STECHOLIDE I], the IC50 in test [1], in test [2], in test [3] and in test [4] was above 10 µg/mL each time.

For the compound `CCCC(=O)O[C@H]1C[C@@H](OC(C)=O)/C(C)=C\[C@@H]2OC(=O)[C@]3(C)O[C@@]23[C@@H](OC(C)=O)[C@H]2[C@@]3(C)O[C@H]3C[C@H](OC(C)=O)[C@]12C` [STECHOLIDE A ACETATE], the half-maximal inhibitory concentration (IC50) in test [1], in test [2], in test [3] and in test [4] was above 10 µg/mL throughout.

With `CC(=O)O[C@@H]1[C@H]2C(C)=C[C@@H](O)[C@H](OC(C)=O)[C@]2(C)[C@@H](OC(C)=O)[C@H](OC(C)=O)C/C(C)=C\[C@@H]2OC(=O)[C@]3(C)O[C@@]213` [STECHOLIDE J], the IC50 in test [1], in test [2], in test [3] and in test [4] was above 10 µg/mL each time.

`CC(=O)O[C@H]1C[C@@H]2O[C@]2(C)[C@@H]2[C@H](OC(C)=O)[C@@]34O[C@@]3(C)C(=O)O[C@H]4/C=C(/C)[C@H](OC(C)=O)C[C@H](OC(C)=O)[C@]12C` [STECHOLIDE C ACETATE]: the IC50 in test [1], in test [2], in test [3] and in test [4] was above 10 µg/mL each time.

For orientation: IC50 means the concentration that inhibits the measured activity by half. A high value points to a need for much substance. What is called EC50 is the concentration that produces a half-maximal response. Read a high EC50 as a less potent agent.
